One data set relates to K562. In words: Survival rate (CCK-8 assay) of CML cell line K562. Type of data set: cell-based. The note with it: imatinib 0.6 μM. Here is the method:
(§1) CML cell lines (K562 and CML-T1 cell line) and a normal lymphoblastoid cell line (LCL) were inoculated into a 96-well plate in which DMEM medium containing 10% FBS, 100 units/mL penicillin, and […] streptomycin at a concentration of 3×10^3 cells/well and cultured under the conditions of 37° C. and 5% CO2.
(§2) In particular, the siRNAs used had the nucleotide sequences of SEQ ID NOS: 5 and 176 to 178.

In the next data set the test system is CML-T1 cell line. In words: Survival rate (CCK-8 assay) of CML cell line CML-T1. Type of data set: cell-based. The note with it: imatinib 0.6 μM. The protocol: as §1, §2
In data set [1] the test system is K562 cell line which induced the T315I mutation. The experiment in a line: Survival rate (CCK-8 assay) of cell line with induced T315I somatic mutation. Format: cell-based. The protocol: A cell line in which a somatic mutation of T315I was induced was prepared using the Clontech Guide-it CRISPR/Cas9 System and inoculated into a 96-well plate in which DMEM medium containing 10% FBS, 100 units/mL penicillin, and 100 μg/mL streptomycin at a concentration of 3×10^3 cells/well and cultured under the conditions of 37° C. and 5% CO2.

In data set [2] the test system is normal lymphoblastoid cell line (LCL). In words: Survival rate (CCK-8 assay) of normal lymphoblastoid cell line. Type of data set: cell-based. The protocol: as §1, §2
The test system of a further data set is phospho CrkL/CrkL ratio. The experiment in a line: Phospho-CRKL analysis (Phospho-CrkL (Tyr207) colorimetric cell-based ELISA) in K562. Here is the method: A ratio of phosphorylated CRKL and CRKL (phospho CrkL/CrkL ratio) of the treated cell line was calculated using the Phospho-CrkL (Tyr207) Colorimetric Cell-Based enzyme linked immunosorbent assay (ELISA) kit and the results were compared (FIG. 10).

In the next data set the test system is K562 cells. In words: Cell cycle analysis (PI staining, FACS) in K562 cells. The note with it: vs negative control siRNA. Format: cell-based. The protocol:
(§3) CML cell lines (K562 cells and LAMA-84 cells) were treated with the two kinds of siRNAs having the nucleotide sequences of SEQ ID NOS: 5 and 176 to 178 (negative control siRNA or IS3 siRNA) and the cells were immobilized. These cells were subjected to PI staining and applied to FACSVerse (BD Biosciences, Franklin Lakes, N.J., U.S.A.) so as to measure the percentage of the cells located in the G0/G1 phase (FIGS. 11A and 11B).

The next data set has as its system LAMA-84 cells. In words: Cell cycle analysis (PI staining, FACS) in LAMA-84 cells. As to conditions: vs negative control siRNA. Format: cell-based. The protocol: as §3
Data set [3] deals with cancer cell lines of hematopoietic tissue or lymphatic tissue (LAMA84, KG-1, HL-60, NB-4, MOLM13, CCRF-CEM, U-937). The experiment in a line: Survival rate (CCK-8 assay) of cancer cell lines of hematopoietic or lymphatic tissue. Type of data set: cell-based. The note with it: 100 pmol siRNA per 200,000 cells, up to 72 hours; vs siCTRL; all 7 hematopoietic/lymphatic lines. The text has this: (§4) Specifically, the cancer cell lines of hematopoietic tissue or lymphatic tissue (e.g., LAMA84 (chronic myeloid leukemia in blast crisis), KG-1 (acute myeloid leukemia, FAB M2), HL-60 (acute myeloid leukemia, FAB M2), NB-4 (acute promyelocytic leukemia), MOLM13 (acute myeloid leukemia, FAB M5B), CCRF-CEM (T acute lymphoblastic leukemia), and U-937 (histiocytic lymphoma)); solid cancer cell lines (e.g., IMR-32 (neuroblastoma, KCLB, 10127), SNU-478 (ampulla of vater adenocarcinoma), MG-63 (osteosarcoma), Hs578T (breast invasive ductal carcinoma, KCLB, 30126), U-87MG (glioblastoma), SNU-886 (hepatocellular carcinoma), MIA-PaCa-2 (pancreatic ductal adenocarcinoma), SK-MEL-2 (malignant melanoma), RD (embryonal rhabdomyosarcoma), Hs 746T (gastric adenocarcinoma), and J-82 (bladder carcinoma)) were dispensed into a 96-well plate at a concentration of 3,000 to 5,000 cell lines/well and incubated in a wet incubator (37° C. and 5% CO2) having an environment similar to that of the human body and cultured for 3 days.
(§5) Each of the cultured cells was treated with the two kinds of siRNAs having the nucleotide sequences of SEQ ID NOS: 5 and 176 to 178 (negative control siRNA (siCTRL) or IS3 siRNA) at a concentration of 100 pmol based on 200,000 cells, cultured for up to 72 hours, and the survival rates of these cells were compared by the CCK-8 assay (FIGS. 12A to 12C).

Data set [4] has as its system solid cancer cell lines (IMR-32, SNU-478, MG-63, Hs578T, U-87MG, SNU-886, MIA-PaCa-2, SK-MEL-2, RD, Hs 746T, J-82). In words: Survival rate (CCK-8 assay) of solid cancer cell lines. Type of data set: cell-based. As to conditions: 100 pmol siRNA per 200,000 cells, up to 72 hours; vs siCTRL; all 11 solid cancer lines.
Source text: as §4, §5

With `Cc1ccc(NC(=O)c2ccc(CN3CCN(C)CC3)cc2)cc1Nc1nccc(-c2cccnc2)n1` [imatinib, reference compound], the “survival rate of the cell line” value with K562 and in the data set on CML-T1 cell line was “reduced” throughout.

As for “HMGCLL1 IS3 siRNA: siRNA to HMGCLL1 isoform 3: sense GGUACCACAGGUUGCUGCU (SEQ ID NO: 178), antisense AGCAGCAACCUGUGGUACC (SEQ ID NO: 5) (listed as RNA, chemistry not given here)”, the “survival rate of the cell line” value in [1] (siRNA in combination with first generation anticancer agent (imatinib 10 nM)) is reported as “further significantly reduced”; in data set [1] (siRNA in combination with second generation anticancer agent (nilotinib or dasatinib 10 nM)) it was “further significantly reduced”; in data set [1] (siRNA used alone), “reduced”; in the data set with K562, “reduced”; in the data set with CML-T1 cell line, “reduced”; in data set [2] it was “not affected”. Besides, the “phospho CrkL/CrkL ratio” value in the data set with phospho CrkL/CrkL ratio (HMGCLL1 IS3 siRNA and imatinib in combination) is on record as “reduced to the lowest level”; in the data set on phospho CrkL/CrkL ratio (treated individually), “reduced to similar levels”. In addition, the “percentage of the cells located in the G0/G1 phase” value in the data set on K562 cells and in the data set on LAMA-84 cells was “increased” each time. Besides, the “survival rate of each cell line” value in [3] and in data set [4] was “significantly reduced” in each case.

Values taken from patent US20180355359A1, “METHODS FOR DETERMINING RESISTANCE TO ANTICANCER THERAPY AND COMPOSITION USED THEREFOR” (SD GENOMICS CO., LTD., priority 2015, published 2018).
